In patent US12582721B2, “Molybdenum-based feed supplement for bees” (UNIVERSITE DE VERSAILLES—SAINT-QUENTIN-EN-YVELINES, priority 2020, dated 2026):

How the values were obtained:
[1] = tested on: healthy Madin-Darby canine kidney epithelial cells of the MDCK line; experiment: Resazurin cell proliferation test, MDCK cells; assay type: cell-based
Excerpt: (§1) For cell culture, human cervical epithelial cells of the HeLa line, human epithelial pancreatic adenocarcinoma cells of the BxPC-3 line and healthy Madin-Darby canine kidney epithelial cells of the MDCK line were used in this study. The Resazurin cell proliferation test was applied according to the literature (S. Anoopkumar-Dukie, J. B. Carey, T. Conere, E. O'Sullivan, F. N. van Pelt, A. Allshire, Br J Radiol 2005, 78, 945, DOI: 10.1259/bjr/54004230). As an indicator of the effectiveness of the experimental compounds on cell proliferation, the median inhibitory concentration (IC50) was used. The lower the IC50 value, the higher the activity (in this case, the cytotoxicity).
(§2) Five formula I complexes were tested in this study in comparison to two reference anti-cancer compounds (“Cisplatin” and Doxorubicin complex).

[2] = tested on: human epithelial pancreatic adenocarcinoma cells of the BxPC-3 line; experiment: Resazurin cell proliferation test, BxPC-3 cells; assay type: cell-based
Excerpt: as §1, §2

[3] = tested on: human cervical epithelial cells of the HeLa line; experiment: Resazurin cell proliferation test, HeLa cells; assay type: cell-based
Excerpt: as §1, §2

[4] = Chemical stability of the complexes (solid, water, physiological medium, sugar syrup; 1H-NMR or UV-vis); assay type: physicochemical; settings: for Stability in a physiological medium or in a sugar syrup: physiological medium or sugar syrup with 50% by weight, very low concentrations; for Stability in water: 5×10^−3-2×10^−7 M concentration range (K—Mo2O2S2-LCys: down to micromolar concentrations)
Excerpt: In solid form, the compounds obtained are perfectly stable in air and can be kept without any special conditions for years without any alteration.
The stabilities of the complexes in solution are studied by different techniques (^1H-NMR or UV-vis spectroscopy), the objective being to study their behavior in different media in terms of stability.

[5] = cited from earlier work
[6] = healthy cells, IC50 equal to and greater than 100 μM considered no activity
[7] = pancreatic cancer cells, IC50 equal to and greater than 100 μM considered no activity
[8] = cervical cancer cells, IC50 equal to and greater than 100 μM considered no activity

SMILES	IC50 [1, 6] [µM]	IC50 [2, 7] [µM]	IC50 [3, 8] [µM]	Stability in a physiological medium or in a sugar syrup [4]	Stability in water [4]	other results
N.N.[Cl][Pt][Cl] [Cisplatin, reference compound]	30.9 ± 1.1	11.2 ± 1.2	3.99 ± 0.33			
COc1cccc2c1C(=O)c1c(O)c3c(c(O)c1C2=O)C[C@@](O)(C(=O)CO)C[C@@H]3O[C@H]1C[C@H](N)[C@H](O)[C@H](C)O1 [Doxorubicin, reference compound]						IC50 ([1]; Canis lupus familiaris, MDCK): 1.48 ± 3.1 µM; IC50 ([2]; Homo sapiens, BXPC-3): 3.99 ± 7.9 µM; IC50 ([3]; Homo sapiens, HeLa): 1.31 µM
N[C@@H](C[S-])C(=O)[O-].N[C@@H](C[S-])C(=O)[O-].[K+].[K+].[O]=[Mo+]12[S][Mo+]1(=[O])[S]2 [K—Mo2O2S2-Cys, K2[Mo2O2S2 (LCys)2]·xH2O]				good stability	without any breakdown	IC50, MDCK [1, 6]: Inactive; IC50, BxPc-3 [2, 7]: Inactive; IC50, HeLa [3, 8]: Inactive
O=C([O-])CN(CCN(CC(=O)[O-])CC(=O)[O-])CC(=O)[O-].[O]=[Mo+]12[S][Mo+]1(=[O])[S]2.c1ccc([P+](c2ccccc2)(c2ccccc2)c2ccccc2)cc1.c1ccc([P+](c2ccccc2)(c2ccccc2)c2ccccc2)cc1 [PPh4—Mo2O2S2-EDTA]	≥ 100	59.8 ± 26.4	≥ 100			
O=C([O-])CN(CCN(CC(=O)[O-])CC(=O)[O-])CC(=O)[O-].[O]=[Mo+]12[S][Mo+]1(=[O])[S]2 [[Mo2O2S2-EDTA]^2−]				good stability	no sign of decomposition	
[Li] [lithium]						Serum lithium concentration at which toxicity appears [5]: greater than 2 mmol/l
